Laboratory results as given in publication PMC10454243, “Anticancer Study of a Novel Pan-HDAC Inhibitor MPT0G236 in Colorectal Cancer Cells” (International Journal of Molecular Sciences, 2023).
Like-named read-outs stand apart in the source and are kept apart here. Each block holds one compound with its values, some of them ahead of it.

What was measured:
[1] = test system: HCT-116 human colorectal cancer cells; test: SRB cell proliferation (growth) assay, HCT-116; assay type: cell-based; conditions: read-out: GI50 cell growth
Procedure: (§1) The impacts of MPT0G236 on cell viability (A,C) and cell growth (B) were evaluated with HCT-116 and HT-29 human colorectal cancer cells, as well as human umbilical vein endothelial cells (HUVECs). The cells were treated with different concentrations of the compound for 48 h. Cell viability was measured using an MTT assay, while cell growth was assessed using an SRB assay. The data are shown as the mean ± SEM on the basis of three independent experiments. […] The basal cells were fixed with 10% (w/v) trichloroacetic acid for 10 min. […] After treatment, the cells were fixed with 10% TCA, stained with SRB at a concentration of 0.4% (w/v), and washed with 1% acetic acid. After drying, the stained cells were lysed with 10 mM Trizma base, and the absorbance was measured at a wavelength of 515 nm.

[2] = test system: HT-29 human colorectal cancer cells; test: SRB cell proliferation (growth) assay, HT-29; assay type: cell-based; conditions: read-out: GI50 cell growth
Procedure: as §1

[3] = test system: HT-29 human colorectal cancer cells; test: MTT cell viability assay, HT-29; assay type: cell-based; conditions: read-out: IC50 cell viability
[4] = test system: human umbilical vein endothelial cells (HUVECs); test: MTT cell viability assay, HUVEC; assay type: cell-based
[5] = test system: HDAC6; set-up: method as in PMID 27344487; conditions: Class IIb; cited from earlier work
[6] = target: T1, HDAC5 (Homo sapiens, UniProt Q9UQL6); test: HDAC enzyme inhibition assay, HDAC5; assay type: biochemical; conditions: Class IIa; Reaction Biology Corp. assay
T1 construct: purchased Reaction Biology Corp. (contract assay service)
T1 sequence (Q9UQL6 whole entry): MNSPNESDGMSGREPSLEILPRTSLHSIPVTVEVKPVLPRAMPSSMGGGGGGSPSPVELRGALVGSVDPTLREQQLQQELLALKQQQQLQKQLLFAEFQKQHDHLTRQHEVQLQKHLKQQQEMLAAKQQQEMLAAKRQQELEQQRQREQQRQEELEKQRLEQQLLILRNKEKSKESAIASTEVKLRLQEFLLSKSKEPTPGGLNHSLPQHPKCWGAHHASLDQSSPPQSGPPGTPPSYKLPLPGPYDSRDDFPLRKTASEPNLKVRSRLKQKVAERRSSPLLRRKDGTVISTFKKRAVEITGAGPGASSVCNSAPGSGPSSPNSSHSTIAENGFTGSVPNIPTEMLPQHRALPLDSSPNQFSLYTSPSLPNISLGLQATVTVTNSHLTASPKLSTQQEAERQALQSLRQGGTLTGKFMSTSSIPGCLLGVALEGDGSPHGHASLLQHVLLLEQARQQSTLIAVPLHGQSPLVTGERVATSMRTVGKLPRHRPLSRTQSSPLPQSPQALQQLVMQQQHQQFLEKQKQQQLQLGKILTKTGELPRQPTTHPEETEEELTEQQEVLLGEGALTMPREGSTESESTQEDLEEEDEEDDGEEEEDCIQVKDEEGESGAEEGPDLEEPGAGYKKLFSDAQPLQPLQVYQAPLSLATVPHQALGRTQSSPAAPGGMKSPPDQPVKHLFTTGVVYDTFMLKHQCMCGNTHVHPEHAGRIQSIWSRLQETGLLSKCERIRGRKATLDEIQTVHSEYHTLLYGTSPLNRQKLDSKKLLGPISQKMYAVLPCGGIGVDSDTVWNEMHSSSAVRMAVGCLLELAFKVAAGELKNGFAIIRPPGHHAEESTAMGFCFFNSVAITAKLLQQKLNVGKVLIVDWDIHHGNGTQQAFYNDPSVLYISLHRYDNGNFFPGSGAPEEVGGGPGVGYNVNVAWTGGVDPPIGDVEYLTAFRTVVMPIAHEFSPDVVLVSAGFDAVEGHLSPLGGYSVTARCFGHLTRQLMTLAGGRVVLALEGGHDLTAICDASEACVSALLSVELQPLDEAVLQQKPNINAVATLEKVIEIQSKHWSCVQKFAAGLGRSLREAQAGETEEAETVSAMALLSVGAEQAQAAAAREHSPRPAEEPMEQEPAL
Procedure: (§2) HDAC activity inhibition assays were performed by Reaction Biology Corp. (Malvern, PA, USA).

[7] = test system: acetyl-α-tubulin and acetyl-histone H3 in HT-29 cells; test: Western blot of acetyl-α-tubulin and acetyl-histone H3, HT-29; assay type: cell-based, human; conditions: 24 h
Procedure: (§3) Figure 2 MPT0G236 induced acetylation of α-tubulin and histone H3 in human colorectal cells. (A) The structure of MPT0G236. […] Protein expression was quantified by using the computerized image analysis application in ImageJ software V1.53k. The data are shown as the mean ± SEM on the basis of at least three independent experiments. * p < 0.05, ** p < 0.01, *** p < 0.001 and **** p < 0.0001 compared with the control group.
(§4) Cells were washed with PBS and incubated with lysis buffer (20 mM HEPES, pH 7.4; 2 mM EGTA; 0.1% Triton X-100; 50 mM β-glycerophosphate; 1 mM DTT; 10% glycerol; 1 μg/mL leupeptin; 1 mM sodium orthovanadate; 1 mM phenylmethylsulfonyl fluoride; 5 μg/mL aprotinin) for 10 min at 4 °C. The cells were then scraped off and incubated on ice for an additional 10 min before being centrifuged at 17,000× g for 30 min at 4 °C. The total protein […] was determined, and equal amounts of proteins were separated by […] on sodium dodecyl sulfate polyacrylamide gels (SDS-PAGE) and transferred onto a nitrocellulose membrane. […] Signals were detected with chemiluminescence reagents (GE Healthcare Corp., Buckinghamshire, UK), and the membranes were scanned using a ChemiDocTM MP Imaging System. Protein levels in the Western blots were then quantified using ImageJ software V1.53k.

[8] = test system: PC-3 cells; set-up: method as in PMID 27344487; conditions: previous study, read-out: GI50 cell proliferation; cited from earlier work
[9] = target: T2, HDAC7 (Homo sapiens, UniProt Q8WUI4); test: HDAC enzyme inhibition assay, HDAC7; assay type: biochemical; conditions: Class IIa; Reaction Biology Corp. assay
T2 construct: purchased Reaction Biology Corp. (contract assay service)
T2 sequence (Q8WUI4 1-952): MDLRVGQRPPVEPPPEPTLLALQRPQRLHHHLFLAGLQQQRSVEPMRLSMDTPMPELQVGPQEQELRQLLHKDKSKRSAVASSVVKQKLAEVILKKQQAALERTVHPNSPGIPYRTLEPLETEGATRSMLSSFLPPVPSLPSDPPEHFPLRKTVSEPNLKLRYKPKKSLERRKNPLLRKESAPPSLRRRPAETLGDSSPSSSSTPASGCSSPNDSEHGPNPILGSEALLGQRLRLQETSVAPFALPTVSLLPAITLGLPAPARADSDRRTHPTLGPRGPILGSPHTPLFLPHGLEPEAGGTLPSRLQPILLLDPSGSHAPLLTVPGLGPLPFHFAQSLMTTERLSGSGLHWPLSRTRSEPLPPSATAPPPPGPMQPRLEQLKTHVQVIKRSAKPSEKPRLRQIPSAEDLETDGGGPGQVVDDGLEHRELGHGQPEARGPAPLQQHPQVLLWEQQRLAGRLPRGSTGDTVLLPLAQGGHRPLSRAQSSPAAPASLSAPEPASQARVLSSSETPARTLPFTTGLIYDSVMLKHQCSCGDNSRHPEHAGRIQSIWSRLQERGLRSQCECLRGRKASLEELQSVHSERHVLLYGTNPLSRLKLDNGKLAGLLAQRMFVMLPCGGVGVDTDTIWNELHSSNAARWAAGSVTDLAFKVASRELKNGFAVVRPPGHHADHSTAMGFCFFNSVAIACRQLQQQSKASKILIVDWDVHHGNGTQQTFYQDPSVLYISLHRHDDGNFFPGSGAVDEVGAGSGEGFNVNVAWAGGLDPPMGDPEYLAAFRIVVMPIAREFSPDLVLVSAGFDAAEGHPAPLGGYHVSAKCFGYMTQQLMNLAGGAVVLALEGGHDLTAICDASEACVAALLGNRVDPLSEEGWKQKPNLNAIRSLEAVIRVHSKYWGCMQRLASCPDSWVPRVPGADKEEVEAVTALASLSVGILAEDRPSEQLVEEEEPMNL
Procedure: as §2

[10] = test system: HCT-116 tumor; set-up: method as in PMID 27344487; conditions: cited from earlier work
[11] = test system: HDAC2; set-up: method as in PMID 27344487; conditions: Class I; cited from earlier work
[12] = test system: acetyl-α-tubulin and acetyl-histone H3 in HCT-116 cells; test: Western blot of acetyl-α-tubulin and acetyl-histone H3, HCT-116; assay type: cell-based, human; conditions: 24 h
Procedure: as §3, §4

[13] = test system: HCT-116 human colorectal cancer cells; test: MTT cell viability assay, HCT-116; assay type: cell-based; conditions: 48 h
[14] = test system: A549 cells; set-up: method as in PMID 27344487; conditions: previous study, read-out: GI50 cell proliferation; cited from earlier work
[15] = set-up: method as in PMID 27344487; conditions: in vivo HCT-116 tumor study; cited from earlier work
[16] = target: T3, HDAC4 (Homo sapiens, UniProt P56524); test: HDAC enzyme inhibition assay, HDAC4; assay type: biochemical; conditions: Class IIa; Reaction Biology Corp. assay
T3 construct: purchased Reaction Biology Corp. (contract assay service)
T3 sequence (P56524 whole entry): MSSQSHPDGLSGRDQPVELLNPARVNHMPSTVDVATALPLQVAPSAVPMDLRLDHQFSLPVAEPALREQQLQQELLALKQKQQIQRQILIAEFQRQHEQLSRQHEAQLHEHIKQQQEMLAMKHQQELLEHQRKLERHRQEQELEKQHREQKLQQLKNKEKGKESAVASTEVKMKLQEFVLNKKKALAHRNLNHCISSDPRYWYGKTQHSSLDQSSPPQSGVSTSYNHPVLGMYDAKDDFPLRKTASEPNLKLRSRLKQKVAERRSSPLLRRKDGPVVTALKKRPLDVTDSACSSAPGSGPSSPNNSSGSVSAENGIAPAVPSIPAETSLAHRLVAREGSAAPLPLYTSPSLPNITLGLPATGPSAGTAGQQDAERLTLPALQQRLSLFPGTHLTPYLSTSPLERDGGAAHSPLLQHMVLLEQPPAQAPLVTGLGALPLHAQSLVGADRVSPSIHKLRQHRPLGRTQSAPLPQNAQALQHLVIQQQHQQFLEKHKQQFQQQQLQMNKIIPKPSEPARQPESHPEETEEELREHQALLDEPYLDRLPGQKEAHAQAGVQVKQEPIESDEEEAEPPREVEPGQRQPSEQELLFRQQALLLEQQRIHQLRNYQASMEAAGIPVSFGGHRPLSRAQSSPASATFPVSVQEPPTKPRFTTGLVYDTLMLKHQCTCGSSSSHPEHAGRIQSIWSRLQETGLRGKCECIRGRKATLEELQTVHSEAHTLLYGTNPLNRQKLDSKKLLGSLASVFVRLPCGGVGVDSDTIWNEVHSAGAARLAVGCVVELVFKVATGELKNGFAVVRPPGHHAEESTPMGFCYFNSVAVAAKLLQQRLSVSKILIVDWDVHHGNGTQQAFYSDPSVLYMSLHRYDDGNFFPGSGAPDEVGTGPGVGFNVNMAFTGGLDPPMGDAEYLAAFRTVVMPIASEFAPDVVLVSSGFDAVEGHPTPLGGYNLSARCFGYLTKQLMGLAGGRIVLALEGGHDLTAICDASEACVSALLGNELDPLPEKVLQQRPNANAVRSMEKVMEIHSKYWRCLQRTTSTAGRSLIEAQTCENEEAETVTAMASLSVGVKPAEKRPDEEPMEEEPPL
Procedure: as §2

[17] = target: T4, HDAC9 (Homo sapiens, UniProt Q9UKV0); test: HDAC enzyme inhibition assay, HDAC9; assay type: biochemical; conditions: Class IIa; Reaction Biology Corp. assay
T4 construct: purchased Reaction Biology Corp. (contract assay service)
T4 sequence (Q9UKV0 whole entry): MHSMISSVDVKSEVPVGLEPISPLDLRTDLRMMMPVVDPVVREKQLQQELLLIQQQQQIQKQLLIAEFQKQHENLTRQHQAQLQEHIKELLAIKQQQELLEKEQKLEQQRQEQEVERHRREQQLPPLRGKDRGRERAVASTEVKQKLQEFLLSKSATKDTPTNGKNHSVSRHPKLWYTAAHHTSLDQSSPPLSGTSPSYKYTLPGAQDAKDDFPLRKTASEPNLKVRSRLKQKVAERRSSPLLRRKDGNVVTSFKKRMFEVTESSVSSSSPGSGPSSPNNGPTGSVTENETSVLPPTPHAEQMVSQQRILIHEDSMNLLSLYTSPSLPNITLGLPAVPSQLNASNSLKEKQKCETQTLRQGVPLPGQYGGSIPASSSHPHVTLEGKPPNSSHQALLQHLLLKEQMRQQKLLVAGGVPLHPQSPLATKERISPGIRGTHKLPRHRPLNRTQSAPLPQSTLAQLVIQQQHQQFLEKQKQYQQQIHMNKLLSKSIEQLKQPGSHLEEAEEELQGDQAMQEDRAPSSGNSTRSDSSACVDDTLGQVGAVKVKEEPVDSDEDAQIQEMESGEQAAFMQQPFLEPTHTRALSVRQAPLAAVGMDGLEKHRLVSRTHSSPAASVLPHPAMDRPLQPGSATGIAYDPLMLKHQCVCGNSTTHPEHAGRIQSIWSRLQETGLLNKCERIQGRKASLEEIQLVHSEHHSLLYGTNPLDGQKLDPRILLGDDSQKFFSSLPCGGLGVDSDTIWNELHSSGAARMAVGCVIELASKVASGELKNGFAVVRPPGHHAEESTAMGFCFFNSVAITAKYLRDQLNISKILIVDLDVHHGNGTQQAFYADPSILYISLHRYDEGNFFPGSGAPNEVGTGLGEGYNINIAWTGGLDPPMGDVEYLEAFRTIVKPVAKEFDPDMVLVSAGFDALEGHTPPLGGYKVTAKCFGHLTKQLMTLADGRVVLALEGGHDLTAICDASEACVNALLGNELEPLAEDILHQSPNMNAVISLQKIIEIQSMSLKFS
Procedure: as §2

[18] = test system: HDAC1; set-up: method as in PMID 27344487; conditions: Class I; cited from earlier work
[19] = test system: HCT-116 cells; set-up: method as in PMID 27344487; conditions: previous study, read-out: GI50 cell proliferation; cited from earlier work
[20] = test system: HDAC8; conditions: Class I; cited from earlier work
[21] = target: T5, HDAC3 (Homo sapiens, UniProt O15379); test: HDAC enzyme inhibition assay, HDAC3; assay type: biochemical; conditions: Class I; Reaction Biology Corp. assay
T5 construct: purchased Reaction Biology Corp. (contract assay service)
T5 sequence (O15379 whole entry): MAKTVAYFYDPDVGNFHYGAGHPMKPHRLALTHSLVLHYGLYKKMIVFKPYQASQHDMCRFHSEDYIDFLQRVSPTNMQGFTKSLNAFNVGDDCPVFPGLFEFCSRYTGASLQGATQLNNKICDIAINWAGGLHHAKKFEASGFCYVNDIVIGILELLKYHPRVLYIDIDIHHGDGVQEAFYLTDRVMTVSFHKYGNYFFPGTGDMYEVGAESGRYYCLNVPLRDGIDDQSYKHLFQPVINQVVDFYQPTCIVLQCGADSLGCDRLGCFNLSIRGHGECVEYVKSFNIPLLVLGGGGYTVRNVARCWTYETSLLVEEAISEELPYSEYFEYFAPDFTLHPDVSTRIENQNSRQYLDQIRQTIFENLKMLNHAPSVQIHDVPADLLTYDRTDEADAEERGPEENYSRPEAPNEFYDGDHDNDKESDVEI
T5 sequence (Q9Y618 395-489 partner limits assumed): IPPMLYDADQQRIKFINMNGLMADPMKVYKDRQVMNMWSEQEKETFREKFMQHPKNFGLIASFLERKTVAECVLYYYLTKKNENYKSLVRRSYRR
Procedure: as §2

Compound: O=C(CCCCCCC(=O)Nc1ccccc1)NO [SAHA, Suberoylanilide hydroxamic acid, reference compound]
GI50 ([1]; HCT-116, 48 h): 630 nM
GI50 ([2]; HT-29, 48 h): 470 nM
IC50 ([3]; HT-29, 48 h): 2310 nM

GI50 ([1]; HCT-116, SRB, 48 h): 100 nM
IC50 [6]: 15500 nM
IC50 [9]: 12300 nM
IC50 [13]: 350 nM
IC50 [16]: 19700 nM
IC50 [17]: 12600 nM
GI50 ([2]; HT-29, SRB, 48 h): 310 nM
IC50 ([3]; HT-29, MTT, 48 h): 880 nM
IC50 [21]: 70 nM
Compound: O=C(/C=C/c1cccc(S(=O)(=O)c2ccc3ccccc3n2)c1)NO [MPT0G236]
normal cells (HUVEC) less sensitive than colorectal cancer cells ([4]; HUVEC IC50 versus HCT-116 and HT-29 IC50): more than 10 fold
IC50 ([4]; Homo sapiens, HUVEC, 48 h): 15100 nM
IC50 [5]: 15 nM
concentration that significantly elevated acetyl-α-tubulin [7]: 3 µM
concentration that significantly elevated histone acetylation [7]: 1 µM
GI50 [8]: 150 ± 10 nM
HCT-116 tumor growth suppression ([10]; oral administration of 50 mg/kg): 32.2%
HCT-116 tumor growth suppression ([10]; oral administration of 100 mg/kg): 58.8%
IC50 [11]: 11.5 nM
concentration that significantly increased accumulation of acetyl-α-tubulin [12]: 0.3 µM
concentration that significantly increased histone acetylation [12]: 1 µM
GI50 [14]: 270 ± 20 nM
effect on body weight [15]: without affecting body weight
IC50 [18]: 14 nM
GI50 [19]: 80 ± 1 nM
IC50 [20]: 130 nM
